pIC50: −log10 of the molar value.
Assays:
RSV = RSV plaque reduction assay (Comparative Example 1, strain not stated); assay type: cell-based; settings: human respiratory syncytial virus; read-out: RSV Plaque Reduction assay IC50 (Table 4)
Protocol: Plaque Reduction Assay: […] After an overnight incubation at 37° C. in a humidified 5% CO2 atmosphere, the monolayer of cells should be approximately 90% confluent. Antiviral compounds were titrated in pre-warmed Serum Free (SF) Optimem in a U-bottom 96 well plate. […] Media was then removed from cells and replaced with PBS (100 μl/well). RSV stock was thawed and diluted in SF Optimem media to 4000 PFU/mLl. An equal volume of virus was added to compounds on the titration plate. PBS was removed from cells which were then inoculated with the virus/compound solution (50 μL/well). Cells were incubated for 2 h in a 37° C.+5% CO2 humidified incubator to allow infection. […] Cells were subsequently incubated for 48 h at 37° C.+5% CO2 in a humidified incubator. Immunostaining Procedure: Media was removed from cells and the monolayer washed with PBS. Cells were fixed with ice cold 80% Acetone in PBS (100 μl/well) for 20 mins at −20° C. […] Blocking solution was removed and plates washed once with PBS-T. Primary antibody in blocking solution was added to plates (50 μl/well) and incubated for 1 h at 37° C. Plates were then washed 3 times with PBS-T. Secondary antibody in blocking solution was added to plates (50 μL/well) and incubated for 1 h at 37° C. in the dark. […] Data Analysis: Images obtained were saved and plaque numbers counted with the aid of computer imaging software. […]

RSV-BA (Brasil) = test: RSV plaque reduction assay, RSV-BA (Brasil), Vero cells; assay type: cell-based; settings: human respiratory syncytial virus, n = 1
Protocol: (§1) Plaque Reduction Assay: […] After an overnight incubation at 37° C. in a humidified 5% CO2 atmosphere, the monolayer of cells should be approximately 90% confluent. Antiviral compounds were titrated in pre-warmed Serum Free (SF) Optimem in a U-bottom 96 well plate. […] Media was then removed from cells and replaced with PBS (100 μl/well). RSV stock was thawed and diluted in SF Optimem media to 4000 PFU/mLl. An equal volume of virus was added to compounds on the titration plate. PBS was removed from cells which were then inoculated with the virus/compound solution (50 μL/well). Cells were incubated for 2 h in a 37° C.+5% CO2 humidified incubator to allow infection. […] Immunostaining Procedure: Media was removed from cells and the monolayer washed with PBS. Cells were fixed with ice cold 80% Acetone in PBS (100 μl/well) for 20 mins at −20° C. […] Blocking solution was removed and plates washed once with PBS-T. Primary antibody in blocking solution was added to plates (50 μl/well) and incubated for 1 h at 37° C. Plates were then washed 3 times with PBS-T. Secondary antibody in blocking solution was added to plates (50 μL/well) and incubated for 1 h at 37° C. in the dark. […] Data Analysis: Images obtained were saved and plaque numbers counted with the aid of computer imaging software. […]

RSV-A5 (6440) = test: RSV plaque reduction assay, RSV-A5 (6440), Vero cells; assay type: cell-based; settings: human respiratory syncytial virus, n = 1
Protocol: as §1

RSV A2 (PRNT1) = test: RSV plaque reduction assay, A2 (PRNT1), Vero cells; assay type: cell-based, respiratory syncytial virus; settings: human respiratory syncytial virus, Vero; n = 4
Protocol: Plaque Reduction Assay: […] After an overnight incubation at 37° C. in a humidified 5% CO2 atmosphere, the monolayer of cells should be approximately 90% confluent. Antiviral compounds were titrated in pre-warmed Serum Free (SF) Optimem in a U-bottom 96 well plate. […] Media was then removed from cells and replaced with PBS (100 μl/well). RSV stock was thawed and diluted in SF Optimem media to 4000 PFU/mLl. An equal volume of virus was added to compounds on the titration plate. PBS was removed from cells which were then inoculated with the virus/compound solution (50 μL/well). Cells were incubated for 2 h in a 37° C.+5% CO2 humidified incubator to allow infection. […] Immunostaining Procedure: Media was removed from cells and the monolayer washed with PBS. Cells were fixed with ice cold 80% Acetone in PBS (100 μl/well) for 20 mins at −20° C. […] Blocking solution was removed and plates washed once with PBS-T. Primary antibody in blocking solution was added to plates (50 μl/well) and incubated for 1 h at 37° C. Plates were then washed 3 times with PBS-T. Secondary antibody in blocking solution was added to plates (50 μL/well) and incubated for 1 h at 37° C. in the dark. […] Plates were scanned on the Odyssey Imager (Li-Cor Biosciences) at a resolution of […], medium quality and level 5 intensity in the […]. Data Analysis: Images obtained were saved and plaque numbers counted with the aid of computer imaging software. EC50 values for compounds were derived from dose response curves [three variable log (inhibitor) vs response] obtained using Graphpad Prism software.

RSV-A5 (6470) = test: RSV plaque reduction assay, RSV-A5 (6470), Vero cells; assay type: cell-based; settings: human respiratory syncytial virus, n = 1
Protocol: as §1

`CC(C)CCn1c(CN2C(=O)C3(CC3)c3ccccc32)nc2cc(CN)ccc21` [RV039, 1′-((5-(aminomethyl)-1-isopentyl-1H-benzo[d]imidazol-2-yl)methyl)spiro[cyclopropane-1,3′-indolin]-2′-one, reference compound] was tested, and the pIC50 (RSV) was 7.51.

`NCc1ccc2c(c1)nc(CN1C(=O)C3(CC3)c3ccc(F)cc31)n2CCCC(F)(F)F` [Example 1, 1′-{[5-(Aminomethyl)-1-(4,4,4-trifluorobutyl)-1H-1,3-benzodiazol-2-yl]methyl}-6′-fluoro-1′,2′-dihydrospiro[cyclopropane-1,3′-indole]-2′-one] gave a pIC50 (RSV-BA (Brasil)) of 8.68, an IC90 (RSV-BA (Brasil)) of 34.5 nM and a pIC50 (RSV-A5 (6440)) of 8.24. The IC90 (RSV-A5 (6440)) was 106 nM, the pIC50 (RSV A2 (PRNT1)) was 8.68 and the IC90 (RSV A2 (PRNT1)) was 13.5 nM. The pIC50 (RSV-A5 (6470)) was 7.99 and the IC90 (RSV-A5 (6470)) was 81 nM.

— patent US10106539B2, “Spiro-indolines for the treatment and prophylaxis of respiratory syncytial virus infection (RSV)” (REVIRAL LIMITED, priority 2014, dated 2018)
